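Grown in 96-well plates, cells were treated for 48 hours with each compound at five concentrations. Insufficient inhibition: endpoint recorded as highest concentration tested. GI50 = concentration required for 50% inhibition of growth. At the TGI there is no net growth.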
What was measured:
Test in all cases: growth of human tumour cells (NCI), 48 h
HL-60(TB) leukemia = test system: HL-60(TB) leukemia
HOP-92 NSCLC = test system: HOP-92 NSCLC
HOP-62 NSCLC = test system: HOP-62 NSCLC
SF-295 CNS = test system: SF-295 CNS
SK-OV-3 ovarian = test system: SK-OV-3 ovarian
SW-620 colon = test system: SW-620 colon
K-562 leukemia = test system: K-562 leukemia
SR leukemia = test system: SR leukemia
SK-MEL-2 melanoma = test system: SK-MEL-2 melanoma
NCI-H460 lung = test system: NCI-H460 lung

Structure (SMILES)	GI50 (HL-60(TB) leukemia) [µM]	TGI (HL-60(TB) leukemia) [µM]	GI50 (HOP-92 NSCLC) [µM]	TGI (HOP-92 NSCLC) [µM]	GI50 (HOP-62 NSCLC) [µM]	TGI (HOP-62 NSCLC) [µM]	GI50 (SF-295 CNS) [µM]	TGI (SF-295 CNS) [µM]	GI50 (SK-OV-3 ovarian) [µM]	TGI (SK-OV-3 ovarian) [µM]	GI50 (SW-620 colon) [µM]	TGI (SW-620 colon) [µM]	GI50 (K-562 leukemia) [µM]	TGI (K-562 leukemia) [µM]	GI50 (SR leukemia) [µM]	TGI (SR leukemia) [µM]	GI50 (SK-MEL-2 melanoma) [µM]	TGI (SK-MEL-2 melanoma) [µM]	TGI (NCI-H460 lung) [µM]	GI50 (NCI-H460 lung) [µM]
COc1ccc(/C=C/c2c(C(=O)/C=C/c3ccccc3)c(C)nc3ccccc23)cc1	2.3	5.79	1.4	3.84	1.89	3.58	2.62	7.46	3.13	9.54	2.12	6.34	2.33	7.19	1.56	7.19	2.11	5.06		
CCOC(=O)N[C@@H]1C(CC(=O)OC)O[C@H]2OC(C)(C)O[C@H]21 (stereo partly specified)		> 100		> 100		> 100		> 100		> 100		> 100		> 100				> 100	> 100	
CC(=O)O[C@H]1CCC2[C@@H]3CC[C@]4(C)CC(=O)C=C[C@]4(C)C3CC[C@@]21C (stereo partly specified)		66.7		> 100		97.9		> 100		> 100		33.8		> 100				38.7	32	
CCOC(=O)/C(C)=C(/O)C(=O)OCC		> 100		> 100		> 100		> 100		> 100		> 100		> 100				> 100	> 100	
COc1cc(OC)c(C(=O)/C=C/c2cccc(C(F)(F)F)c2)c(OC)c1			1.02	3.58	1.56	5.46	1.67	6.72	3.03	9.37	1.58	5.01	1.26	4.83	0.826	3.13	1.22	3.37	2.67	1.08
O=C1c2cccnc2-c2nc(-c3ccc(Cl)cc3)cc3c2c1nc1ccccc13	37.6	> 100	22.9	74.1			22.9	> 100			28.6	> 100	38.7	> 100	7.38	> 100	76.5	> 100	> 100	37.2
CC(C)c1ccc(-c2cc(-c3cn[nH]c3-c3ccccn3)ccn2)cc1	11.4	> 25	1.99	> 25	12	> 25	7.68	> 19.7	> 23.4	> 25	18	> 25	9.03	> 25			9.52	> 25	> 25	7.64
c1ccc(C2N3CCCCC3[C@@H]3c4[nH]c5ccccc5c4CCN23)nc1 (stereo partly specified)		> 100		> 100		> 100		> 100		> 100		> 100		> 100				> 100	> 100	
OCC1OC(n2cnc3c2NC=NC[C@H]3O)C(Cl)C1O (stereo partly specified)		> 100		> 100		> 100		> 100				> 100				> 100		> 100	> 100	
C=C(C)CCN[Si](c1ccccc1)(c1ccccc1)C(C)(C)C		44.5		34.2		31.4		36.4		69		> 100		63.2				29.2	> 100	
C=CCCCCC/C=C\[C@@H](O)C#CC#C/C=C/CO	11.2	27.8	> 100	> 100	> 100	> 100	> 100	> 100	> 100	> 100	48.2	> 100	18.5	37.5			> 100	> 100	> 100	> 100
Cc1nnc(NS(=O)(=O)c2ccc(N=Nc3cc(N=Nc4ccc(S(=O)(=O)Nc5nnc(C)s5)cc4)c4c(NC(=O)C(Cl)Cl)cccc4c3OC(=O)C(Cl)Cl)cc2)s1 (tested in a mixture with another compound)		42.4		> 100		> 100		> 100				> 100		77.8				64.1	> 100	
COC(=O)[C@@]12C(=O)C=CC(=O)C1C1C(=CC2C)OC2OC3(CCCCC3)OC21 (stereo partly specified)		15.7				35.8		32.9		33.9		37.4		74.6				35.5	35.7	
[N-]=[N+]=C1C(=O)NN=C1c1ccccc1		> 100		> 100				> 100		> 100		> 100		> 100		> 100		> 100	> 100	
CC(=O)C1Cn2c(nc3ccccc32)C[Se]1 (stereo unspecified)		5.71		4.72		5.39		10.1		34		17.3		31.7		6.96			16.8	
COc1c(C(=O)/C=C/c2ccccc2)c(O)cc2occc12			1.64	7.09	11.3	25.2	7.83	21.4	14.1	36.4	3.52	11.7	4.42	> 100	3.27	22.2	12.4	25.2	8.92	3.02
CCOC(=O)C(=O)Nc1ccccc1CC		> 100		> 100		> 100		> 100		> 100		> 100		> 100				> 100	> 100	
COc1c2c(cc3c1OCO3)[C@]13C=C[C@H](OC)C[C@H]1N(C2)CC3O (stereo partly specified)		> 100		> 100		> 100		> 100		> 100		> 100				> 100		> 100	> 100	
CCCC1=C(CC)C(C(=O)Nc2c(C)cccc2C)=NC(S)N1 (stereo unspecified)		> 100		> 100		> 100		> 100				> 100		> 100		> 100		> 100	> 100	

Structure (SMILES)	GI50 (HL-60(TB) leukemia) [µM]	TGI (HL-60(TB) leukemia) [µM]	GI50 (HOP-92 NSCLC) [µM]	TGI (HOP-92 NSCLC) [µM]	GI50 (HOP-62 NSCLC) [µM]	TGI (HOP-62 NSCLC) [µM]	GI50 (SF-295 CNS) [µM]	TGI (SF-295 CNS) [µM]	GI50 (SK-OV-3 ovarian) [µM]	TGI (SK-OV-3 ovarian) [µM]	GI50 (SW-620 colon) [µM]	TGI (SW-620 colon) [µM]	GI50 (K-562 leukemia) [µM]	TGI (K-562 leukemia) [µM]	GI50 (SR leukemia) [µM]	TGI (SR leukemia) [µM]	GI50 (SK-MEL-2 melanoma) [µM]	TGI (SK-MEL-2 melanoma) [µM]	TGI (NCI-H460 lung) [µM]	GI50 (NCI-H460 lung) [µM]
NC(=O)c1cc(Cl)ccc1NC(=O)/C=C/c1ccccc1	1.28	4.4	9.88	> 43	7.79	> 41.6	2.58	> 25.6	4.3	> 35.5	2.36	> 100	0.806	> 23.1			3.95	> 39.3	> 100	3.09
CCNCCNc1cc(-c2ccc(C(F)(F)F)cc2)c(C#N)c2nc3ccccc3n12	0.203	0.468	1.55	2.98	1.56	3.18	1.83	3.34	1.66	3.17	1.22	2.75			0.343	1.19	2.03	3.87	2.73	1.22
COC(=O)C12CC3CC(CC(C(=O)O)(C3)C1)C2		> 100		> 100		> 100		> 100		> 100		> 100		> 100		> 100			> 100	
COC(=O)C(Cc1nc2ccccc2[nH]c1=O)C(NO)C(=O)Nc1c(Cl)cc([N+](=O)[O-])cc1Cl (stereo unspecified)				25.7		> 100		> 100		> 100				> 100		> 100		82.2	44.7	
O=C(O)CNS(=O)(=O)c1ccc(NC(=O)c2ccc([N+](=O)[O-])cc2)cc1		> 100		> 100				> 100		> 100		> 100		> 100				> 100	> 100	
CC1=[N+]([O-])c2ccccc2C(=O)C1=O		> 100		> 100		> 100		> 100		> 100		> 100		> 100				> 100	> 100	
CCCCC(CC)COC(=O)C[N+](C)(C)CCOC(c1ccccc1)c1ccccc1 (stereo unspecified)			1.86	4.9	9.89	28.6	9.63	26.3	6.38	21.8	1.97	4.3	3.23	11.6	2.18	5.16	1.95	4.13	18.8	4.77
O=C(N/N=C/c1cc(Br)ccc1O)N/N=C/c1cc(Br)ccc1O		> 100		6.05		> 100		> 100		> 100		> 100		> 100		> 100			> 100	
COC(=O)C(CC(=O)Nc1ccc(C)cc1)C(=O)C(=O)Nc1c(C(C)C)cccc1C(C)C (stereo unspecified)		> 100		> 100		> 100				> 100		> 100		> 100				> 100	> 100	
COc1cc(/C=C/c2ccc(OC)c(O)c2)cc(OC)c1		4.43		29.4		15.4		4.54		86.6		13.7		8.64				29.8	14.1	
Cc1ccc(N=C/C=C(\Nc2ccc(C)cc2)c2ccc(Cl)cc2)cc1			14	33.1	14.9	35.9	5.55	21.9	21	> 100	6.44	52	4.75	> 100	2.32	> 100	29.9	> 100	60.6	6.38
Cn1cc(C2(C)CC(C)(C)c3c2n(C)c2ccccc32)c2ccccc21 (stereo unspecified)				> 100		> 100		> 100		> 100		> 100		> 100				> 100	> 100	
COc1cc2c3c(n(CCCN)c(=O)c2cc1OC)-c1ccc(C#N)cc1C3=O					4.01	19.1	11.1	33.6	12.7	28	11	30.6		65.4			26.2	> 100	26.9	7.16
CC1=C(/C=C/Cl)CC(Cl)C(C)(Cl)C1 (stereo unspecified)		60.5		> 100				> 100		> 100		> 100		> 100		> 100		> 100	> 100	
O=C1C2C3C=C4c5ccccc5N(c5ccccc5)C4(C2C(=O)N1c1ccc([N+](=O)[O-])cc1)[C@H]1C(=O)N(c2ccc([N+](=O)[O-])cc2)C(=O)[C@@H]31 (stereo partly specified)		> 100		> 100		> 100		> 100		> 100		> 100		> 100				> 100	> 100	
CNC(=S)/N=C(\N)N(C)C		> 100		> 100		> 100		> 100		> 100		> 100		> 100		> 100			> 100	
Clc1cc(Cl)c2ns[s+]c2c1Cl		> 100				> 100		> 100		> 100		> 100		> 100		> 100		> 100	> 100	
N#Cc1cc(-c2cc3ccccc3o2)oc1N	3.85	> 100			3.18	11.3	2.22	4.97	2.38	7.15	3.98	14.8	3.58	> 100	0.764	3.1	1.29	4.49	10.6	3.03
COc1ccc(CN2CC(C)(C)C2=O)c(OC)c1		> 100		> 100		> 100		> 100		> 100		> 100		> 100				> 100	> 100	

Source: PubChem BioAssay (NCI)
